From patent EP3345917A1, “ANTIPROTOZOAL COMPOUNDS” (Bacoba AG, priority 2017, dated 2018)
Non-standard residues stand in square brackets, D forms with d. Residues, ends and D or L forms follow the SMILES beside them. *: point of attachment. Hexenoyl(2E,4S-Me) = CC[C@H](C)/C=C/C(=O)*; Leu(3R-OH) = CC(C)[C@@H](O)[C@H](N)C(=O)O; NH((S)CH(Me)CH2NMe2) = C[C@@H](CN(C)C)N*; NH(1-CH2NMe2-cBu) = CN(C)CC1(N*)CCC1; Gly(octyl) = CCCCCCCC[C@H](N)C(=O)O; Oxazole4CO(2-Me) = Cc1nc(C(=O)*)co1; X16 = COc1ccc2cc(C(=O)*)c(=O)oc2c1; Piperazinyl(4-Me) = CN1CCN(*)CC1; X22 = CC1CC(C)CN(CCN*)C1; Hexanoyl = CCCCCC(=O)*; X18 = CN1CCN(CCN*)CC1; Aib = CC(C)(N)C(=O)O; βAla = NCCC(=O)O

Legend:
[1] = system: Trypanosoma cruzi trypomastigote forms (Tulahuen strain); assay: Intracellular Trypanosoma cruzi assay in L6-cells, beta-galactosidase/CPRG readout; format: cell-based; conditions: In vitro inhibition, read-out: T.cruzi.
Method: (§1) Tests were done in triplicate.
Trypanosoma cruzi trypomastigote forms (Tulahuen strain C2C4 containing β-galactosidase (Lac Z) gene) were cultured as described by Buckner et al. (Buckner FS et al. Antimicrob Agents Ch1996; 40: 2592-2597) in rat myoblast cells (L6-cells). […] After incubation, the substrate chlorophenyl red β-D-galactopyranoside agent CPRG/Nonident was added to all wells and a color change was developed within 2 to 6 h. The plates were read photometrically at 540 nm (Molecular Devices). Data were evaluated and IC50 values calculated using Softmax Pro software (Molecular Devices).

[2] = Cytotoxicity assay on L6-cells (Alamar Blue); conditions: rat, Cytotox L6, Cytotoxicity against rat myoblast cells (L6)
Method: Tests were done in triplicate. IC50 values against the parasites as well as cytotoxic effects against rat myoblast (L6-cells) were determined by serial dilution and repeated twice.
After 68 h of incubation under humidified 5% CO2 atmosphere, 10 µl of the Alamar blue marker was added to all wells. The plates were incubated for an additional 2 h. […] The IC50S were calculated by Softmax Pro software (Molecular Devices Cooperation, Sunnyvale, CA). […] Cytotoxicity was measured against rat myoblast cells (Cytotox L6).

[3] = system: Axenically grown Leishmania donovani amastigotes (strain MHOM/ET/67/L82); assay: Axenic Leishmania donovani amastigote resazurin assay; format: cell-based; conditions: In vitro inhibition, read-out: L.don. ax
Method: as §1
Axenically grown Leishmania donovani amastigotes (strain MHOM/ET/67/L82) were grown and tests were done as previously described using the resazurin assay (Räz B et al. Acta Tropica 1997, 68:139-147). The plates were developed for 2-4 hours and read on a Spectramax Gemini XS micro plate fluorometer (Molecular Devices Cooperation) using an excitation wavelength of 536 nm and emission wavelength of 588 nm. Fluorescence development was measured and expressed as percentage of the negative control. […] Data were transferred to the graphic programme Softmax Pro (Molecular Devices), with which IC50 values were calculated.

Plasmodium falciparum = assay: 3H-hypoxanthine incorporation assay against Plasmodium falciparum; format: cell-based; conditions: In vitro inhibition, read-out: P.falc NF5
Method: as §1
IC50 values were calculated by linear interpolation.

[4] = system: Trypanosoma brucei rhodesiense (STIB 900 strain); assay: Alamar Blue assay against Trypanosoma brucei rhodesiense grown in axenic medium; format: cell-based; conditions: In vitro inhibition, read-out: T.b.rhod.
Method: as §1
Trypanosoma brucei rhodesiense (STIB 900) were grown in axenic medium as described by Baltz et al. (1985) The samples were tested using the Alamar Blue assay protocol (Baltz T et al. EMBO J 1985; 4:1273-1277) to determine the 50% inhibitory concentration (IC50). […] Melarsoprol (Arsobal®, Sanofi-Aventis, Switzerland) was used as a reference drug (IC50= 0.03 ± 0.01 µM). Its purity was over 95 %, as was certified by the supplier. The IC50 values were calculated by using Softmax Pro software (Molecular Devices Cooperation, Sunnyvale, CA).

| SMILES | IC50 [1] | IC50 at 70 h [2] | IC50 [3] | IC50 (Plasmodium falciparum) | IC50 [4] |
| --- | --- | --- | --- | --- | --- |
| CCCCCCCC[C@H](NC(=O)[C@@H]1CCCN1C(=O)CCCCC)C(=O)N[C@H](C(=O)N[C@@H](CC(C)C)C(=O)N[C@@H](CC(C)C)C(=O)NC(C)(C)C(=O)NCCC(=O)N[C@@H](C)CN(C)C)[C@@H](C)O [Compound 5599, (2S)-N-[(1S,2R)-1-{[(1S)-1-{[(1S)-1-({1-[(2-{[(2S)-1-(dimethylamino)propan-2-yl]carbamoyl}ethyl)carbamoyl]-1-methylethyl}carbamoyl)-3-methylbutyl]carbamoyl}-3-methylbutyl]carbamoyl}-2-hydroxypropyl]-2-{[(2S)-1-hexanoylpyrrolidin-2-yl]formamido}decanamide] (Hexanoyl-P[Gly(octyl)]TLL[Aib][βAla]-{NH((S)CH(Me)CH2NMe2)}) | 8360 nM | 6950 nM | 4810 nM | 3500 nM | 1940 nM |
| CCCCCCCC[C@H](NC(=O)[C@@H]1CCCN1C(=O)CCCCC)C(=O)N[C@H](C(=O)N[C@@H](CC(C)C)C(=O)NC(C)(C)C(=O)NC(C)(C)C(=O)NCCC(=O)N[C@@H](C)CN(C)C)[C@@H](C)O [Compound 5596, (2S)-N-[(1S,2R)-1-{[(1S)-1-{[1-({1-[(2-{[(2S)-1-(dimethylamino)propan-2-yl]carbamoyl}ethyl)carbamoyl]-1-methylethyl}carbamoyl)-1-methylethyl]carbamoyl}-3-methylbutyl]carbamoyl}-2-hydroxypropyl]-2-{[(2S)-1-hexanoylpyrrolidin-2-yl]formamido}decanamide] (Hexanoyl-P[Gly(octyl)]TL[Aib][Aib][βAla]-{NH((S)CH(Me)CH2NMe2)}) | 7740 nM | 5030 nM | 791 nM | 1240 nM | 667 nM |
| CCCCCCCC[C@H](NC(=O)[C@@H]1CCCN1C(=O)/C=C/[C@@H](C)CC)C(=O)N[C@H](C(=O)NC(C)(C)C(=O)N[C@@H](CC(C)C)C(=O)N[C@@H](CC(C)C)C(=O)NC(C)(C)C(=O)NC(C)(C)C(=O)NCCC(=O)N1CCN(C)CC1)[C@H](O)C(C)C [Compound 5571, (2S)-N-[(1S,2R)-2-hydroxy-3-methyl-1-[(1-methyl-1-{[(1S)-3-methyl-1-{[(1S)-3-methyl-1-({1-methyl-1-[(1-methyl-1-{[3-(4-methylpiperazin-1-yl)-3-oxopropyl]carbamoyl}ethyl)carbamoyl]ethyl}carbamoyl)butyl]carbamoyl}butyl]carbamoyl}ethyl)carbamoyl]butyl]-2-{[(2S)-1-[(2E,4S)-4-methylhex-2-enoyl]pyrrolidin-2-yl]formamido}decanamide] ({Hexenoyl(2E,4S-Me)}-P[Gly(octyl)][Leu(3R-OH)][Aib]LL[Aib][Aib][βAla]-{Piperazinyl(4-Me)}) | 2930 nM | 2630 nM | 398 nM | 125 nM | 214 nM |
| CCCCCCCC[C@H](NC(=O)[C@@H]1CCCN1C(=O)CCCCC)C(=O)N[C@@H](CC(C)C)C(=O)NC(C)(C)C(=O)N[C@@H](CC(C)C)C(=O)N[C@@H](CC(C)C)C(=O)NC(C)(C)C(=O)NC(C)(C)C(=O)NCCC(=O)NCCN1CC(C)CC(C)C1 (stereo partly drawn) [Compound 5885, (2S)-N-[(1S)-1-[(1-{[(1S)-1-{[(1S)-1-{[1-({1-[(2-{[2-(3,5-dimethylpiperidin-1-yl)ethyl]carbamoyl}ethyl)carbamoyl]-1-methylethyl}carbamoyl)-1-methylethyl]carbamoyl}-3-methylbutyl]carbamoyl}-3-methylbutyl]carbamoyl}-1-methylethyl)carbamoyl]-3-methylbutyl]-2-{[(2S)-1-hexanoylpyrrolidin-2-yl]formamido}decanamide] (Hexanoyl-P[Gly(octyl)]L[Aib]LL[Aib][Aib][βAla]-X22) | 42600 nM | 45.6 nM | 46800 nM | 0.9 nM | 0.2 nM |
| CC[C@H](C)/C=C/C(=O)N1CCC[C@H]1C(=O)N[C@@H](C)C(=O)N[C@H](C(=O)NC(C)(C)C(=O)N[C@@H](CC(C)C)C(=O)N[C@@H](CC(C)C)C(=O)NC(C)(C)C(=O)NC(C)(C)C(=O)NCCC(=O)N[C@@H](C)CN(C)C)[C@H](O)C(C)C [Compound 5526, (2S,3R)-N-(1-{[(1S)-1-{[(1S)-1-{[1-({1-[(2-{[(2S)-1-(dimethylamino)propan-2-yl]carbamoyl}ethyl)carbamoyl]-1-methylethyl}carbamoyl)-1-methylethyl]carbamoyl}-3-methylbutyl]carbamoyl}-3-methylbutyl]carbamoyl}-1-methylethyl)-3-hydroxy-4-methyl-2-[(2S)-2-{[(2S)-1-[(2E,4S)-4-methylhex-2-enoyl]pyrrolidin-2-yl]formamido}propanamido]pentanamide] ({Hexenoyl(2E,4S-Me)}-PA[Leu(3R-OH)][Aib]LL[Aib][Aib][βAla]-{NH((S)CH(Me)CH2NMe2)}) | 4500 nM | 3640 nM | 286 nM | 83.8 nM | 2.35 nM |
| CCCCCCCC[C@H](NC(=O)[C@@H]1CCCN1C(=O)CCCCC)C(=O)N[C@@H](CC(C)C)C(=O)NC(C)(C)C(=O)N[C@@H](CC(C)C)C(=O)N[C@@H](CC(C)C)C(=O)NC(C)(C)C(=O)NC(C)(C)C(=O)NCCC(=O)NCCN1CCN(C)CC1 [Compound 5884, (2S)-2-{[(2S)-1-hexanoylpyrrolidin-2-yl]formamido}-N-[(1S)-3-methyl-1-[(1-methyl-1-{[(1S)-3-methyl-1-{[(1S)-3-methyl-1-{[1-methyl-1-({1-methyl-1-[(2-{[2-(4-methylpiperazin-1-yl)ethyl]carbamoyl}ethyl)carbamoyl]ethyl}carbamoyl)ethyl]carbamoyl}butyl]carbamoyl}butyl]carbamoyl}ethyl)carbamoyl]butyl]decanamide] (Hexanoyl-P[Gly(octyl)]L[Aib]LL[Aib][Aib][βAla]-X18) | 42500 nM | 128 nM | 19400 nM | 15000 nM | 0.6 nM |
| CCCCCC(=O)N1CCC[C@H]1C(=O)N[C@@H](CCCCNC(=O)c1cc2ccc(OC)cc2oc1=O)C(=O)N[C@@H](CC(C)C)C(=O)NC(C)(C)C(=O)N[C@@H](CC(C)C)C(=O)N[C@@H](CC(C)C)C(=O)NC(C)(C)C(=O)NC(C)(C)C(=O)NCCC(=O)N[C@@H](C)CN(C)C [Compound 5767, (2S)-N-[(1S)-1-[(1-{[(1S)-1-{[(1S)-1-{[1-({1-[(2-{[(2S)-1-(dimethylamino)propan-2-yl]carbamoyl}ethyl)carbamoyl]-1-methylethyl}carbamoyl)-1-methylethyl]carbamoyl}-3-methylbutyl]carbamoyl}-3-methylbutyl]carbamoyl}-1-methylethyl)carbamoyl]-3-methylbutyl]-2-{[(2S)-1-hexanoylpyrrolidin-2-yl]formamido}-6-[(7-methoxy-2-oxo-2H-chromen-3-yl)formamido]hexanamide] (Hexanoyl-PK(X16)L[Aib]LL[Aib][Aib][βAla]-{NH((S)CH(Me)CH2NMe2)}) | 114 nM | 508 nM | 17.8 nM | 21.3 nM | 3.5 nM |
| CCCCCCCC[C@H](NC(=O)[C@@H]1CCCN1C(=O)c1coc(C)n1)C(=O)N[C@@H](CC(C)C)C(=O)NC(C)(C)C(=O)NC(C)(C)C(=O)N[C@@H](CC(C)C)C(=O)N[C@@H](CC(C)C)C(=O)NC(C)(C)C(=O)NC(C)(C)C(=O)NCCC(=O)NC1(CN(C)C)CCC1 [Compound 6330, (2S)-N-[(1S)-1-({1-[(1-{[(1S)-1-{[(1S)-1-({1-[(1-{[2-({1-[(dimethylamino)methyl]cyclobutyl}carbamoyl)ethyl]carbamoyl}-1-methylethyl)carbamoyl]-1-methylethyl}carbamoyl)-3-methylbutyl]carbamoyl}-3-methylbutyl]carbamoyl}-1-methylethyl)carbamoyl]-1-methylethyl}carbamoyl)-3-methylbutyl]-2-{[(2S)-1-(2-methyl-1,3-oxazole-4-carbonyl)pyrrolidin-2-yl]formamido}decanamide] ({Oxazole4CO(2-Me)}-P[Gly(octyl)]L[Aib][Aib]LL[Aib][Aib][βAla]-{NH(1-CH2NMe2-cBu)}) | 36.3 nM | 1200 nM | 0.72 nM | 0.24 nM | 0.2 nM |
